Data set [1] concerns Candida albicans and Trichophyton mentagrophytes var. quinkeanum. The data set is described as follows: Oral antifungal test in mice inoculated with Candida (vagina) and Trichophyton (back), minimum effective dose. The format is in vivo. Conditions: 168 h; female mice, oral dosing twice on day 0 and once daily on days 1-4; skin lesions scored and vaginal samples cultured on day 7; read-out: minimum effective dose (MED). On the procedure: The following Monday (day 0) they are clipped on the back and then dosed orally with the test compound. They are then inoculated with Candida albicans in the vagina and Trichophyton mentagrophytes var. quinkeanum on the back, and then given a second dose of the same compound. Dosing is repeated once daily on days 1-4. On day 7 skin lesions are scored visually and vaginal samples taken for culture on agar. Groups of 5 mice are used and the compound is dosed initially at a level of 250 mg./kg. The dose is then reduced sequentially until a minimum effective dose (MED) is found. The MED for 2-(2-fluoro-4-trifluoromethylphenyl)-l,3-di(l,2,4-triazol-l-yl)-2-propanol in this test was 5 mg. per kg.

The nature of data set [2]: Teratogenicity / maternal toxicity in the rabbit. The class given is in vivo. Particulars: lowest dose at which impaired maternal weight gain was observed. The procedure:
As indicated above, the compound of this invention has been found not to be teratogenic at doses up to the maternally toxic dose. In both the rabbit and the rat, the maternally toxic dose was taken to be the lowest dose at which impaired maternal weight gain was observed. In the rabbit, this dose was 10 mg./kg. and in the rat between 25 and 50 mg./kg.

On to `OC(Cn1cncn1)(Cn1cncn1)c1ccc(C(F)(F)F)cc1F` [2-(2-fluoro-4-trifluoromethylphenyl)-l,3-di(l,2,4-triazol-l-yl)-2-propanol], for which the minimal effective dose in data set [1] amounted to 5 mg/kg. Moreover, in data set [2], the maternally toxic dose stood at 10 mg/kg.

The values are drawn from patent EP0145314A1, “Antifungal triazole compound” (IMPERIAL CHEMICAL INDUSTRIES PLC, priority 1983, dated 1985).
